From ChEMBL document CHEMBL1909046, “DrugMatrix in vitro pharmacology data”

Experiments:
[1] = target: Kappa-type opioid receptor (Homo sapiens, UniProt P41145); experiment: DRUGMATRIX: Opiate kappa (OP2, KOP) radioligand binding (ligand: [3H] Diprenorphine); type: cell membranes, HEK293, Membrane; details: hek293; Not Active = under 50% inhibition at 10 µM
[2] = DRUGMATRIX: GABAA, Flunitrazepam, Central radioligand binding (ligand: [3H] Flunitrazepam); type: cell membranes, Rattus norvegicus, Wistar, Brain, Membrane; details: Not Active = under 50% inhibition at 10 µM
Mu-type opioid receptor = Mu-type opioid receptor (Homo sapiens, UniProt P35372); experiment: DRUGMATRIX: Opiate mu (OP3, MOP) radioligand binding (ligand: [3H] Diprenorphine); type: cell membranes, CHO-K1, Membrane; details: cho-k1; Not Active = under 50% inhibition at 10 µM
[3] = target: Mitogen-activated protein kinase 3 (Homo sapiens, UniProt P27361); experiment: DRUGMATRIX: Protein Serine/Threonine Kinase, ERK1 enzyme inhibition (substrate: Myelin Basic Protein); parameters: species or system Escherichia coli; details: Not Active = under 50% inhibition at 10 µM
[4] = target: cGMP-specific 3',5'-cyclic phosphodiesterase (Homo sapiens, UniProt O76074); experiment: DRUGMATRIX: Phosphodiesterase PDE5 enzyme inhibition (substrate: [3H]cGMP + cGMP); type: tissue-based, Platelet; details: platelet; Not Active = under 50% inhibition at 10 µM
Neutrophil elastase = target: T1, Neutrophil elastase (Homo sapiens, UniProt P08246); type: tissue-based;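 also: inhibition of neutrophil elastase enzyme activity, measured with a p-nitroanilide-linked peptide substrate; in other assays of this panel Not Active means under 50% inhibition at 10 µM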
T1 sequence (P08246 whole entry): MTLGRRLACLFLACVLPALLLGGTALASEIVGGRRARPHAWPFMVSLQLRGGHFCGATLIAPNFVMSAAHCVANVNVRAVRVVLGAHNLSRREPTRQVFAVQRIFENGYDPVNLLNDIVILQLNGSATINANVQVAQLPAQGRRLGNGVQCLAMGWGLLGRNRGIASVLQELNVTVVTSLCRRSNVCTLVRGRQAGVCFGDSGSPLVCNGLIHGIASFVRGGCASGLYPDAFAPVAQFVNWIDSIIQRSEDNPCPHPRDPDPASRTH

[5] = target: T2, Neuropeptide Y receptor type 1 (Homo sapiens, UniProt P25929); type: cell membranes, Membrane; details: sk-n-mc; also: in other assays of this panel Not Active means under 50% inhibition at 10 µM
T2 sequence (P25929 whole entry): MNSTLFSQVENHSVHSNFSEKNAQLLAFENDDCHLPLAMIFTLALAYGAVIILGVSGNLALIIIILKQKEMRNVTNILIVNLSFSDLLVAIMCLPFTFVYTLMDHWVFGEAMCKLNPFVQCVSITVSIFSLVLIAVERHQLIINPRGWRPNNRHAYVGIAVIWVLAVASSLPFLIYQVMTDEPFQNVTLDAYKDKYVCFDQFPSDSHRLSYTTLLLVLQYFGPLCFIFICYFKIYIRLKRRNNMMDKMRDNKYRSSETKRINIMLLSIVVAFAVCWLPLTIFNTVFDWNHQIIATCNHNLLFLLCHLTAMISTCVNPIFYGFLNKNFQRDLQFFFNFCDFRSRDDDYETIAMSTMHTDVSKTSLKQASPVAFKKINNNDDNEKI

Mu-type opioid receptor, sequence (P35372 whole entry): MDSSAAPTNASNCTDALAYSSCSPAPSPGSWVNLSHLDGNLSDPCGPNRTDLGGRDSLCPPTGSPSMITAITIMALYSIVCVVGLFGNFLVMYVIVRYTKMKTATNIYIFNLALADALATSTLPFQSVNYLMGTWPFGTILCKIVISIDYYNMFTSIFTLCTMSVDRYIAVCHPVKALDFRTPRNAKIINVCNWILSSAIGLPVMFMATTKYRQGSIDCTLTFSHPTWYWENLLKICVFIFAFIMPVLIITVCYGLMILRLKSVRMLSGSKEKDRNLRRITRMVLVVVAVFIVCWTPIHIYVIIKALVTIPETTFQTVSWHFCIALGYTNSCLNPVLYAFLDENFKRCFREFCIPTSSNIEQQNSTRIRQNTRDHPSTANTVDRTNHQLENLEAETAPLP
Mitogen-activated protein kinase 3, sequence (P27361 whole entry): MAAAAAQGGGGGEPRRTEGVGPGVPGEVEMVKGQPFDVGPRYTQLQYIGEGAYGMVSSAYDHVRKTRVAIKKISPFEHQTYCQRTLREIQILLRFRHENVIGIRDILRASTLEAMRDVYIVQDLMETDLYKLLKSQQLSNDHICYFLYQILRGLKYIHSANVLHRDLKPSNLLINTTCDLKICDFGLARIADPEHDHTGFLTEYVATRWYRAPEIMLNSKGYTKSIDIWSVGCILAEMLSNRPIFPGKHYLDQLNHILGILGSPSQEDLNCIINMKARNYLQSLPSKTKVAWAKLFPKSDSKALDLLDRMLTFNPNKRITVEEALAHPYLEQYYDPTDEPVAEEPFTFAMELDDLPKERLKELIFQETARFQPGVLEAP
Kappa-type opioid receptor, sequence (P41145 whole entry): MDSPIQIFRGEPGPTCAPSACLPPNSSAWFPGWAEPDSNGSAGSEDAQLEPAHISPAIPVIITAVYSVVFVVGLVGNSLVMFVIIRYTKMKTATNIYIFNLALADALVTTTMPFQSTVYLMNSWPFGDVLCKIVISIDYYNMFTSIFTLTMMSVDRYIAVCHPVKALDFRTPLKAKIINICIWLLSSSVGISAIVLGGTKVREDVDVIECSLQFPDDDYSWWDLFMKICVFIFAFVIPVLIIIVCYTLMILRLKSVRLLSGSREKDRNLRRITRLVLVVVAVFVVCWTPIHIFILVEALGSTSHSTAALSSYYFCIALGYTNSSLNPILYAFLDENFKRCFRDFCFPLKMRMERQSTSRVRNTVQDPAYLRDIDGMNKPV

O=C(Nc1ccc(Cl)c(Cl)c1)c1cc(Cl)cc(Cl)c1O [3,3',4',5-TETRACHLOROSALICYLANILIDE]
Not Active: IC50 [1] | IC50 [2] | Ki [2] | IC50 (Mu-type opioid receptor) | IC50 [3] | IC50 [4] | IC50 (Neutrophil elastase) | IC50 [5]

COC(=O)Nc1nc2ccc(Sc3ccccc3)cc2[nH]1 [FENBENDAZOLE]
Not Active: IC50 [1] | IC50 [2] | Ki [2] | IC50 (Mu-type opioid receptor) | IC50 [3] | IC50 [4] | IC50 (Neutrophil elastase) | IC50 [5]

Nc1ccc(C(=O)O)c(O)c1 [AMINOSALICYLIC ACID]
Not Active: IC50 [1] | IC50 [2] | Ki [2] | IC50 (Mu-type opioid receptor) | IC50 [3] | IC50 [4] | IC50 (Neutrophil elastase) | IC50 [5]

COC(=O)C[C@](O)(CCC(C)(C)O)C(=O)O[C@@H]1C(OC)=C[C@]23CCCN2CCc2cc4c(cc2[C@H]13)OCO4 [HARRINGTONINE]
Not Active: IC50 [1] | IC50 [2] | Ki [2] | IC50 (Mu-type opioid receptor) | IC50 [3] | IC50 [4] | IC50 (Neutrophil elastase) | IC50 [5]

COc1cc(NC(C)CCCN)c2ncccc2c1 (stereo unspecified) [PRIMAQUINE]
Not Active: IC50 [1] | IC50 [2] | Ki [2] | IC50 (Mu-type opioid receptor) | IC50 [3] | IC50 [4] | IC50 (Neutrophil elastase) | IC50 [5]

OC[C@H]1O[C@@H]2O[C@H]3[C@H](O)[C@@H](O)[C@@H](O[C@H]4[C@H](O)[C@@H](O)[C@@H](O[C@H]5[C@H](O)[C@@H](O)[C@@H](O[C@H]6[C@H](O)[C@@H](O)[C@@H](O[C@H]7[C@H](O)[C@@H](O)[C@@H](O[C@H]8[C@H](O)[C@@H](O)[C@@H](O[C@H]1[C@H](O)[C@H]2O)O[C@@H]8CO)O[C@@H]7CO)O[C@@H]6CO)O[C@@H]5CO)O[C@@H]4CO)O[C@@H]3CO [BETADEX]
Not Active: IC50 [1] | IC50 [2] | Ki [2] | IC50 (Mu-type opioid receptor) | IC50 [3] | IC50 [4] | IC50 (Neutrophil elastase) | IC50 [5]

C[C@H]1C[C@H]2[C@@H]3CCC4=CC(=O)C=C[C@]4(C)[C@@]3(F)[C@@H](O)C[C@]2(C)[C@@]1(O)C(=O)CO [BETAMETHASONE]
Not Active: IC50 [1] | IC50 [2] | Ki [2] | IC50 (Mu-type opioid receptor) | IC50 [3] | IC50 [4] | IC50 (Neutrophil elastase) | IC50 [5]

NC(=O)CN1CCCC1=O
Not Active: IC50 [1] | IC50 [2] | Ki [2] | IC50 (Mu-type opioid receptor) | IC50 [3] | IC50 [4] | IC50 (Neutrophil elastase) | IC50 [5]

CC(N)Cc1c[nH]c2ccc(OCc3cccs3)cc12 (stereo unspecified) [BW-723C86]
Not Active: IC50 [1] | IC50 [2] | Ki [2] | IC50 (Mu-type opioid receptor) | IC50 [3] | IC50 [4] | IC50 (Neutrophil elastase) | IC50 [5]

CNC[C@H](O)c1ccc(O)c(O)c1 [EPINEPHRINE]
Not Active: IC50 [1] | IC50 [2] | Ki [2] | IC50 (Mu-type opioid receptor) | IC50 [3] | IC50 [4] | IC50 (Neutrophil elastase) | IC50 [5]

c1ccc2c(c1)Nc1ccccc1S2 [PHENOTHIAZINE]
Not Active: IC50 [1] | IC50 [2] | Ki [2] | IC50 (Mu-type opioid receptor) | IC50 [3] | IC50 [4] | IC50 (Neutrophil elastase) | IC50 [5]

CC(C)(c1ccc(O)cc1)c1ccc(O)cc1 [BISPHENOL A]
Not Active: IC50 [1] | IC50 [2] | Ki [2] | IC50 (Mu-type opioid receptor) | IC50 [3] | IC50 [4] | IC50 (Neutrophil elastase) | IC50 [5]

c1ccc(Cn2ccnc2)cc1
Not Active: IC50 [1] | IC50 [2] | Ki [2] | IC50 (Mu-type opioid receptor) | IC50 [3] | IC50 [4] | IC50 (Neutrophil elastase) | IC50 [5]

CCO [ALCOHOL]
Not Active: IC50 [1] | IC50 [2] | Ki [2] | IC50 (Mu-type opioid receptor) | IC50 [3] | IC50 [4] | IC50 (Neutrophil elastase) | IC50 [5]

CCN1CCN(C(=O)N[C@@H](C(=O)N[C@@H]2C(=O)N3[C@@H]2SC(C)(C)[C@@H]3C(=O)O)c2ccccc2)C(=O)C1=O [PIPERACILLIN]
Not Active: IC50 [1] | IC50 [2] | Ki [2] | IC50 (Mu-type opioid receptor) | IC50 [3] | IC50 [4] | IC50 (Neutrophil elastase) | IC50 [5]

NC(=O)NC(=O)Cc1ccccc1 [PHENACEMIDE]
Not Active: IC50 [1] | IC50 [2] | Ki [2] | IC50 (Mu-type opioid receptor) | IC50 [3] | IC50 [4] | IC50 (Neutrophil elastase) | IC50 [5]

CC(CN1c2ccccc2Sc2ccccc21)N(C)C (stereo unspecified) [PROMETHAZINE]
Not Active: IC50 [1] | IC50 [2] | Ki [2] | IC50 (Mu-type opioid receptor) | IC50 [3] | IC50 [4] | IC50 (Neutrophil elastase) | IC50 [5]
